pIC50: −log10 of the molar value. Read-outs that look alike come from different tables or passages of the source. One block for each molecule: values may come before it.
How the values were obtained:
[1] = system: TNF-α production from mouse intraperitoneal macrophages; assay: IC50 for TNF-α production from mouse macrophages, LPS + IFN-γ, nucleic acid derivatives (Experiment 19); assay type: cell-based; details: for pIC50 / IC50 Concentration TNF-α: mouse macrophages, LPS and IFN-γ, 20 hours; for pIC50: read-out: IC50 Concentration TNF-α; for inhibitory action on the production of inflammatory cytokines (in words): mouse intraperitoneal macrophages stimulated with LPS and IFN-γ
Excerpt: (§1) After completion of the culture, the supernatant in each well was collected and assayed for cytokines and prostaglandin E2 (called “PGE2”, hereinafter) with ELISA.

[2] = system: IL-6 production from mouse intraperitoneal macrophages; assay: IC50 for IL-6 production from mouse macrophages, LPS + IFN-γ (Experiment 19); assay type: cell-based; details: for inhibition of the production of IL-6 (in words): mouse intraperitoneal macrophages stimulated with LPS and IFN-γ; for IC50 Concentration IL-6 / pIC50: mouse macrophages, LPS and IFN-γ, 20 hours; for pIC50: read-out: IC50 Concentration IL-6
Excerpt: as §1

[3] = system: IL-12 production from mouse intraperitoneal macrophages; assay: IC50 for IL-12 production from mouse macrophages, LPS + IFN-γ (Experiment 19); assay type: cell-based; details: mouse macrophages, LPS and IFN-γ, 20 hours; read-out: IC50 Concentration IL-12
Excerpt: as §1

[4] = system: PGE2 production from mouse intraperitoneal macrophages; assay: IC50 for PGE2 production from mouse macrophages, LPS + IFN-γ (Experiment 19); assay type: cell-based; details: mouse macrophages, LPS and IFN-γ, 20 hours; read-out: IC50 Concentration PGE2
Excerpt: as §1

BALB/c mice [5] = assay: Acute toxicity test, intraperitoneal (Experiment 20); details: BALB/c mice, intraperitoneal
Procedure: As a control, only PBS was intraperitoneally administered to 10 BALB/c mice (6-week-old, female, average weight of 20 g, commercialized by Charles River Laboratories Japan Inc., Tokyo, Japan) at a dose of 1 mL/head, followed by observing the course of the mice for 24 hours.

BALB/c mice [6] = assay: Safeness of injection preparations, i.v. once a day for seven days (Example 2); assay type: in vivo; details: BALB/c mice
Procedure: The safeness of the preparations prepared in the above was evaluated.

SMILES: CNC(=O)[C@H]1O[C@@H](n2cnc3c(NCc4cccc(I)c4)ncnc32)[C@H](O)[C@@H]1O [IB-MECA, 1-deoxy-1-[6-[[(3-iodophenyl-)methyl]amino]-9H-purin-9-yl]-N-methyl-β-D-ribofuranuronamide]
pIC50 [1]: 6.40
inhibition of the production of IL-6 (in words) [2]: no inhibition
IC50 Concentration IL-6 [2]: Not inhibited
pIC50 [3]: 5.35

SMILES: Nc1nc2c([nH]c(=O)n2[C@H]2C[C@H](O)[C@@H](CO)O2)c(=O)[nH]1 [8-OH-deoxyguanine]
pIC50 [1]: < 3.70
IC50 Concentration IL-6 [2]: Enhanced

SMILES: Nc1ncnc2nc[nH]c12 [adenine]
pIC50 ([1]; Macrophage): 4.07
inhibitory action on the production of inflammatory cytokines (in words) [1]: only a weak inhibitory action
pIC50 ([2]; Macrophage): < 3.70

SMILES: Nc1c2ncn([C@@H]3O[C@H](COP(=O)(O)O)[C@@H](O)[C@H]3O)c2nc[n+]1[O-] [adenosine N1-oxide 5′-monophosphate]
pIC50 [1]: 6.05
inhibition of the production of IL-6 (in words) [2]: strongly inhibited
pIC50 [2]: 4.99
pIC50 [3]: < 3.70
clinical laboratory test results that provide indices of renal and liver functions, versus control (BALB/c mice [5]; blood and urine at 24 hours): no difference
change in appearance after administration (BALB/c mice [5]; observed 24 hours): no change in appearance
change in body weight and other appearance versus PBS (BALB/c mice [6]; i.v. 0.3 mL/head once a day for seven days, followed two weeks): no significant change
clinical laboratory test results that provide indices of renal and liver functions versus PBS (BALB/c mice [6]; i.v. once a day for seven days, two weeks after initiating): no difference

SMILES: Nc1nc2nc[nH]c2c(=O)[nH]1 [guanine]
IC50 Concentration TNF-α [1]: Not inhibited
IC50 Concentration IL-6 [2]: Not inhibited

Second part, led by results:

pIC50 [1]: < 3.70
pIC50 [2]: < 3.70
pIC50 [3]: < 3.70
pIC50 [4]: < 3.70
SMILES: CC1(C)[C@@H](O[C@H]2O[C@H](C(=O)O)[C@@H](O)[C@H](O)[C@H]2O[C@@H]2O[C@H](C(=O)O)[C@@H](O)[C@H](O)[C@H]2O)CC[C@]2(C)[C@H]3C(=O)C=C4[C@@H]5C[C@@](C)(C(=O)O)CC[C@]5(C)CC[C@@]4(C)[C@]3(C)CC[C@@H]12 [dipotassium glycyrrhizinate]

pIC50 [1]: < 3.70
IC50 Concentration IL-6 [2]: Enhanced
SMILES: Nc1nc2c(nc(O)n2[C@@H]2O[C@H](CO)[C@@H](O)[C@H]2O)c(=O)[nH]1 [8-OH-guanosine]

pIC50 ([1]; Macrophage): 3.86
pIC50 ([2]; Macrophage): < 3.70
SMILES: Nc1c2[nH]cnc2nc[n+]1[O-] [adenine N1-oxide]
inhibitory action on the production of inflammatory cytokines (in words) [1]: only a weak inhibitory action

IC50 Concentration TNF-α [1]: Not inhibited
IC50 Concentration IL-6 [2]: Not inhibited
SMILES: Nc1nc2c(ncn2[C@@H]2O[C@H](COP(=O)(O)O)[C@@H](O)[C@H]2O)c(=O)[nH]1 [guanosine 5′-monophosphate]

pIC50 ([1]; Macrophage): 4.49
IC50 Concentration IL-6 [2]: Not inhibited
SMILES: Nc1ncnc2c1ncn2[C@@H]1O[C@H](COP(=O)(O)O)[C@@H](O)[C@H]1O [adenosine 5′-monophosphate]
inhibitory action on the production of inflammatory cytokines (in words) [1]: only a weak inhibitory action

pIC50 [1]: 4.30
pIC50 [2]: 4.06
pIC50 [3]: < 3.70
pIC50 [4]: < 3.70
SMILES: CC1(C)[C@@H](O)CC[C@]2(C)[C@H]3C(=O)C=C4[C@@H]5C[C@@](C)(C(=O)O)CC[C@]5(C)CC[C@@]4(C)[C@]3(C)CC[C@@H]12 [18β-glycyrrhetinate]

IC50 Concentration TNF-α [1]: Not inhibited
IC50 Concentration IL-6 [2]: Not inhibited
SMILES: Nc1nc2c(ncn2[C@@H]2O[C@H](CO)[C@@H](O)[C@H]2O)c(=O)[nH]1 [guanosine]
